Measured values published in US8969629B2, “Cyclic compound, production process thereof, radiation-sensitive composition and resist pattern formation method” (Mitsubishi Gas Chemical Company, Inc., priority 2009, dated 2015).

Assay: Solubility test of compound in safe solvent
Type: physicochemical
Settings: for dissolution amount in CHN: cyclohexanone (CHN); for dissolution amount in PGME: propylene glycol monomethyl ether (PGME)
Description: A: 5.0 wt %≦dissolution amount
B: 3.0 wt %≦dissolution amount<5.0 wt %
C: dissolution amount<3.0 wt %

dissolution amount in CHN	dissolution amount in PGME	SMILES
A (5.0 wt %≦dissolution amount)	A (5.0 wt %≦dissolution amount)	CC1CC(Oc2cc(O)c3cc2C(c2ccc(O)c(O)c2)c2cc(c(O)cc2OC2CC(C)CC(C)(C)C2)C(c2ccc(O)c(O)c2)c2cc(c(OC4CC(C)CC(C)(C)C4)cc2O)C(c2ccc(O)c(O)c2)c2cc(c(O)cc2OC2CC(C)CC(C)(C)C2)C3c2ccc(O)c(O)c2)CC(C)(C)C1 (centres unmarked) [CR-7A]
C (dissolution amount<3.0 wt %)	C (dissolution amount<3.0 wt %)	COc1cc(O)c2cc1C(c1ccc(C)cc1C)c1cc(c(O)cc1OC)C(c1ccc(C)cc1C)c1cc(c(OC)cc1O)C(c1ccc(C)cc1C)c1cc(c(O)cc1OC)C2c1ccc(C)cc1C (centres unmarked) [CR-8A, reference compound]
C (dissolution amount<3.0 wt %)	C (dissolution amount<3.0 wt %)	CCOc1cc(O)c2cc1C(c1ccc(OC)cc1)c1cc(c(O)cc1OCC)C(c1ccc(OC)cc1)c1cc(c(OCC)cc1O)C(c1ccc(OC)cc1)c1cc(c(O)cc1OCC)C2c1ccc(OC)cc1 (centres unmarked) [CR-9A, reference compound]

Continued, compound first:

SMILES	dissolution amount in CHN	dissolution amount in PGME
Cc1cc(C2c3cc(c(OC4CCC(C)CC4)cc3O)C(c3ccc(O)c(O)c3)c3cc(c(O)cc3OC3CCC(C)CC3)C(c3ccc(O)c(O)c3)c3cc(c(OC4CCC(C)CC4)cc3O)C(c3ccc(O)c(O)c3)c3cc2c(O)cc3OC2CCC(C)CC2)ccc1O (centres unmarked) [CR-4A]	A (5.0 wt %≦dissolution amount)	A (5.0 wt %≦dissolution amount)
Oc1ccc(C2c3cc(c(OC4CCCCC4)cc3O)C(c3ccc(O)cc3)c3cc(c(O)cc3OC3CCCCC3)C(c3ccc(O)cc3)c3cc(c(OC4CCCCC4)cc3O)C(c3ccc(O)cc3)c3cc2c(O)cc3OC2CCCCC2)cc1 (centres unmarked) [CR-1A]	A (5.0 wt %≦dissolution amount)	A (5.0 wt %≦dissolution amount)
Oc1ccc(C2c3cc(c(OC4CCCCC4)cc3O)C(c3ccc(O)c(O)c3)c3cc(c(O)cc3OC3CCCCC3)C(c3ccc(O)c(O)c3)c3cc(c(OC4CCCCC4)cc3O)C(c3ccc(O)c(O)c3)c3cc2c(O)cc3OC2CCCCC2)cc1O (centres unmarked) [CR-2A]	A (5.0 wt %≦dissolution amount)	A (5.0 wt %≦dissolution amount)
CC1CCC(Oc2cc(O)c3cc2C(c2ccc(O)cc2)c2cc(c(O)cc2OC2CCC(C)CC2)C(c2ccc(O)cc2)c2cc(c(OC4CCC(C)CC4)cc2O)C(c2ccc(O)cc2)c2cc(c(O)cc2OC2CCC(C)CC2)C3c2ccc(O)cc2)CC1 (centres unmarked) [CR-3A]	A (5.0 wt %≦dissolution amount)	A (5.0 wt %≦dissolution amount)
